Entries after “also recorded” stand apart in the source; their conditions may differ.
Experiments:
tumour cell lines = test: Synthetic mimic/siRNA transfection, CellTiter-Blue cell viability, panel of cell lines; format: cell-based, human; details: 30 nM mimic, 96 hours after transfection
Experimental: (§1) Cells were plated and transfected with miRIDIAN microRNA mimics miR-181a, miR-181a*, miR-181a-2, miR-323-5p, miR-323-3p, miR-326-5p, miR-345-5p, miR-342-3p, miR-342-5p, miR-371-3p, miR-371-5p and non-targeting Mimic Negative Control#1 (Dharmacon, Thermo Fisher Scientific, Lafayette, Colo.) in 96-well flat bottom plates (Greiner Bio-One B.V., Alphen a/d Rijn, The Netherlands). MicroRNA mimic for miR-3157 was obtained from Ambion. The non-targeting siCONTROL#1, and the siRNA PLK1 SMARTpool (Dharmacon) were used as negative and positive controls, respectively. Cells were transfected with […] mimic/siRNA and cell line dependent amounts of DharmaFECT1 (Dharmacon) (Table 6). Cell viability was determined, 96 hours after transfection, by adding CellTiter-Blue reagent (Promega, Leiden, The Netherlands). After two hours of incubation at 37° C. fluorescence was analyzed at 540 nm excitation and 590 nm emission wavelength using an Infinite F200 microplate reader (Tecan, Giessen, The Netherlands).
(§2) The cell proliferation has been assessed 96 hours after the transfection of nucleic acids using Dharmafect and the read-out based on the Alamar Blue (resazurin) fluorescent dye for the assessment of mammalian cell cytotoxicity.

ATM expression = test: Knockdown of endogenous ATM expression by shRNA constructs, qRT-PCR in ciOKC; format: cell-based, human; details: ciOKC transduced with shRNA; qRT-PCR vs control construct
Experimental: (§3) Viral supernatants were produced by co-transfection of HEK239T cells using FuGENE® 6 (Roche diagnostics, Woerden, The Netherlands) with the pLKO.1 short-hairpin vector together with the packaging and envelop vectors. Both ciOKC and VU-SCC-120 (HNSCC cell line) were transduced with lentiviruses at two following days for four hours in the presence of 3 μg/ml polybrene (Sigma-Aldrich, Zwijndrecht, The Netherlands). In total 48 hours after transduction, cells were subjected to puromycin selection. For ciOKC this was two days 5 μg/ml and subsequently 5 days of 10 μg/ml puromycin (Sigma-Aldrich). For VU-SCC-120 the selection was performed with 1 μg/ml for seven days.
Total RNA was isolated using the mirVana™ miRNA isolation kit (Ambion, Nieuwerkerk aan den IJssel, The Netherlands) according to the instructions of the manufacturer with as only modification that the columns were eluted by 2×25 μl elution buffer. Expression of hsa-miR-181a, hsa-miR-323, hsa-miR-326, hsa-miR-342, hsa-miR-345 and hsa-miR-371 was analyzed by Taqman® microRNA assays following the instructions of the manufacturer (Applied biosystems, Nieuwerkerk aan den IJssel, The Netherlands). ATM expression was analysed by Taqman® gene expression assay. […] Quantitative RT-PCR reactions without reverse transcriptase were carried out in parallel for each RNA sample to exclude signal by contaminating DNA. […]

VU-SCC-120 [1] = test: ATM inhibitor treatment, CellTiter-Blue cell viability; format: cell-based, human
Experimental: (§4) Both ciOKC and VU-SCC-120 cells were subjected to a concentration range of 40-0.075 μM ATM inhibitor CP466722 (Axon Medchem, Groningen, The Netherlands). After 72 hours cell viability was assessed with the CellTiter-Blue® cell viability assay.

ciOKC cells = test: as above; format: cell-based, human; details: 72 hours
Experimental: as §4

VU-SCC-120 [2] = test: Lentiviral shRNA ATM knockdown, cell survival; format: cell-based, human; details: VU-SCC-120 vs ciOKC
From the text: Lentiviral vectors with short-hairpin RNA sequences targeting ATM were obtained from the TRC short-hairpin library (Sigma-Aldrich, Zwijndrecht, the Netherlands) that is available at VU university medical center. Each shRNA sequence is complementary to an unique part of the ATM mRNA sequence.
as §3
Therefore we introduced five lentiviral shRNA constructs designed to specifically knockdown ATM expression. Each shRNA sequence was complementary to an unique part of the ATM mRNA sequence.

precursor line M3 = test: Synthetic mimic transfection, cell viability; format: cell-based, human; details: 30 nM mimic, 96 hours after transfection
Experimental: as §1, §2

UM-SCC-11B = test: miRNA-3157 mimic transfection, cell viability; format: cell-based, human; details: 30 nM, 96 hours
Experimental: as §1, §2

VU-SCC-059 = test: miRNA-3157 mimic transfection, cell viability; format: cell-based, human; details: 30 nM, 96 hours
Experimental: as §1, §2

VU-SCC-120 [3] = test: miRNA-3157 mimic transfection, cell viability; format: cell-based, human; details: 30 nM, 96 hours
Experimental: as §1, §2

normal keratinocytes = test: miRNA-3157 mimic transfection, cell viability; format: cell-based, human; details: 30 nM, 96 hours
Experimental: as §1
Normal oral keratinocytes were isolated and cultured as previously described (van Zeeburg et al., 2010). […]
as §2

[4] = test system: melanoma or colorectal cancer cells; details: Poell et al. 2012; cited from earlier work
activated BRAF pathway = details: in melanoma or colorectal cancer cells; reported; cited from earlier work

mimic 323-5p: miRIDIAN microRNA mimic (Dharmacon); AGGUGGUCCGUGGCGCGUUCGC (SEQ ID NO: 22) (listed as RNA, chemistry not given here)
cell viability in tumour cell lines (tumour cell lines): cause a decrease in all tumour cell lines

ATM shRNA number 5: lentiviral pLKO.1 short-hairpin construct targeting ATM from the TRC library; probably SEQ ID NO: 359 (CCGGGCCGTCAACTAGAACATGATACTCGAGTATCATGTTCTAGTTGACGGCTTTTTG)
downregulation of ATM expression levels (ATM expression): no significant downregulation

COc1cc2ncnc(-n3nc(-c4ccccn4)nc3N)c2cc1OC [CP466722]
IC50 (VU-SCC-120 [1]; VU-SCC-120, 72 hours): 2600 nM | change of IC50 ciOKC to VU-SCC-120 (VU-SCC-120 [1]; p-value <0.05 by T-testing): 3 fold | IC50 (ciOKC cells): 8.2 µM

shRNA ATM1: lentiviral pLKO.1 short-hairpin construct targeting ATM from the TRC library; probably SEQ ID NO: 355 (CCGGCCTGCCAACATACTTTAAGTACTCGAGTACTTAAAGTATGTTGGCAGGTTTTTG)
toxicity in the tumour cell line as compared to the ciOKC cells (therapeutic window) (VU-SCC-120 [2]): at least 8 times

miRNA-3157: microRNA mimic for miR-3157 from Ambion; mature UUCAGCCAGGCUAGUGCAGUCU (SEQ ID NO: 364) (listed as RNA, chemistry not given here)
cell viability in tumour cell lines (tumour cell lines): lethal for three out of four tumor cell lines | cell viability in precursor line M3 (precursor line M3): not lethal | cell viability (UM-SCC-11B): inhibits cell viability | cell viability (VU-SCC-059): inhibits cell viability | cell viability (VU-SCC-120 [3]): inhibits cell viability | cell viability (normal keratinocytes): not lethal; also recorded: does not inhibit cell viability | lethality to melanoma or colorectal cancer cells [4]: lethal | inhibition of activated BRAF pathway (activated BRAF pathway): selective inhibitor of activated BRAF pathway
